Experimental data as given in patent publication US10023559B2 (Hoffmann-La Roche Inc., priority 2014, dated 2018).

Legend:
rat TAAR1 = rat TAAR1 (Rattus norvegicus (Rat), UniProt Q923Y9); assay: Radioligand binding assay on rat TAAR1; conditions: read-out: Ki(μM) rat; rat TAAR1, HEK-293 membranes, second value of cell pair mouse/rat
Method: Membrane Preparation and Radioligand Binding.
HEK-293 cells stably expressing rat TAAR1 were maintained at 37° C. and 5% CO2 in DMEM high glucose medium, containing fetal calf serum (10%, heat inactivated for 30 min at 56° C.), penicillin/streptomycin (1%), and 375 μg/ml geneticin (Gibco). Cells were released from culture flasks using trypsin/EDTA, harvested, washed twice with ice-cold PBS (without Ca^2+ and Mg^2+), pelleted at 1,000 rpm for 5 min at 4° C., frozen and stored at −80° C. Frozen pellets were suspended in 20 ml HEPES-NaOH (20 mM, pH 7.4) containing 10 mM EDTA and homogenized with a Polytron (PT 6000, Kinematica) at 14,000 rpm for 20 s. The homogenate was centrifuged at 48,000×g for 30 min at 4° C. Subsequently, the supernatant was removed and discarded, and the pellet resuspended in 20 ml HEPES-NaOH (20 mM, pH 7.4) containing 0.1 mM EDTA using the Polytron (20 s at 14,000 rpm). This procedure was repeated and the final pellet resuspended in HEPES-NaOH containing 0.1 mM EDTA and homogenized using the Polytron. Typically, aliquots of 2 ml membrane portions were stored at −80° C. With each new membrane batch the dissociation constant (Kd) was determined via a saturation curve. […] Nonspecific binding was defined as the amount of [H]—(S)-4-[(ethyl-phenyl-amino)-methyl]-4,5-dihydro-oxazol-2-ylamine bound in the presence of 10 M unlabeled ligand. All compounds were tested at a broad range of concentrations (10 pM to 10 μM) in duplicates. […] The 96 deep well plates were incubated for 1 hr at 4° C. Incubations were terminated by rapid filtration through Unifilter-96 plates (Packard Instrument Company) and glass filters GF/C (Perkin Elmer) presoaked for 1 hr in polyethylenimine (0.3%) and washed 3 times with 1 ml of cold binding buffer. After addition of 45 μl of Microscint 40 (PerkinElmer) the Unifilter-96 plate was sealed and after 1 hr the radioactivity counted using a TopCount Microplate Scintillation Counter (Packard Instrument Company).

mouse TAAR1 = mouse TAAR1 (Mus musculus (Mouse), UniProt Q923Y8); assay: Radioligand binding assay on mouse TAAR1
Chain of mouse TAAR1 (Q923Y8 whole entry): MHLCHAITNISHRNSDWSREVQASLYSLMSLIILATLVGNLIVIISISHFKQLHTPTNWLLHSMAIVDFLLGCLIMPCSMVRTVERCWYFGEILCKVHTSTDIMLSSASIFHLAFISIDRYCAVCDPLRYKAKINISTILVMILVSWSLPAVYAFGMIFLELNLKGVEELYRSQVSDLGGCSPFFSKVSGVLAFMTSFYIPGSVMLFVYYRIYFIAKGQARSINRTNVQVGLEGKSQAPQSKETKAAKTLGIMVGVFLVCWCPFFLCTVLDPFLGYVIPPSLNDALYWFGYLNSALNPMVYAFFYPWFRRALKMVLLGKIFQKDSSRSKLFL

Chain of rat TAAR1 (Q923Y9 whole entry): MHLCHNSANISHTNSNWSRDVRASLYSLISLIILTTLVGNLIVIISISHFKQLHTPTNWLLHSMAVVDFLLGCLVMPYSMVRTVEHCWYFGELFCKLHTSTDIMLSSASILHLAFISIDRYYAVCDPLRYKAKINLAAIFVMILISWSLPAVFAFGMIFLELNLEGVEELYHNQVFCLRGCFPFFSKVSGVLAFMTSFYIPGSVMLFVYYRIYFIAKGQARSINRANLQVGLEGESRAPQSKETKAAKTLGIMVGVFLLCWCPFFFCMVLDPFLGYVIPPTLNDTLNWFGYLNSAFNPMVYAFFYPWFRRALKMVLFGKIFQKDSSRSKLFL

Row | SMILES | Ki (rat TAAR1) [µM] | Ki (mouse TAAR1) [nM]
1 | c1ccc(CC2CNC2)cc1 [Example 1, 3-benzylazetidine] | 0.701 | 1570
2 | CN(c1ccc(NC(=O)c2ccnc(C(F)(F)F)c2)cc1)C1CNC1 [Example 2, N-[4-[azetidin-3-yl(methyl)amino]phenyl]-2-(trifluoromethyl)pyridine-4-carboxamide] | 0.211 | 27.2
3 | O=C(Nc1ccc(NC2CNC2)cc1)c1ccnc(C(F)(F)F)c1 [Example 3, N-[4-(azetidin-3-ylamino)phenyl]-2-(trifluoromethyl)pyridine-4-carboxamide] | 0.66 | 77.7
4 | O=C(Nc1ccc(OC2CNC2)cc1)c1ccc(Cl)cc1 [Example 4, N-(4-(azetidin-3-yloxy)phenyl)-4-chlorobenzamide] | 0.0087 | 1.1
5 | O=C(Nc1ccc(OC2CNC2)cc1)c1cc(C2CC2)n[nH]1 [Example 10, N-(4-(azetidin-3-yloxy)phenyl)-3-cyclopropyl-1H-pyrazole-5-carboxamide] | 0.0887 | 414
6 | CCc1n[nH]c(C(=O)Nc2ccc(OC3CNC3)cc2)c1C [Example 11, N-(4-(azetidin-3-yloxy)phenyl)-3-ethyl-4-methyl-1H-pyrazole-5-carboxamide] | 0.0808 | 64.5
7 | CC(C)c1cc(C(=O)Nc2ccc(OC3CNC3)cc2)[nH]n1 [Example 12, N-(4-(azetidin-3-yloxy)phenyl)-3-isopropyl-1H-pyrazole-5-carboxamide] | 0.0927 | 137
8 | Cc1ncc(C(=O)Nc2ccc(OC3CNC3)cc2)cn1 [Example 16, N-[4-(azetidin-3-yloxy)phenyl]-2-methyl-pyrimidine-5-carboxamide] | 0.633 | 74.6
9 | Cn1nc(C(F)(F)F)cc1C(=O)Nc1ccc(OC2CNC2)cc1 [Example 17, N-[4-(azetidin-3-yloxy)phenyl]-2-methyl-5-(trifluoromethyl)pyrazole-3-carboxamide] | 0.0969 | 72.9
10 | O=C(NCc1ccc(F)cc1)c1ccc(OC2CNC2)cc1 [Example 18, 4-(azetidin-3-yloxy)-N-[(4-fluorophenyl)methyl]benzamide] | 1.63 | 109
11 | O=C(Nc1ccccc1)c1ccc(OC2CNC2)cc1 [Example 20, 4-(azetidin-3-yloxy)-N-phenyl-benzamide] | 1.03 | 478
12 | O=C(Nc1ccc(OC2CNC2)cc1)c1nn(CC(F)(F)F)cc1Cl [Example 21, N-[4-(azetidin-3-yloxy)phenyl]-4-chloro-1-(2,2,2-trifluoroethyl)pyrazole-3-carboxamide] | 0.0207 | 653
13 | CCn1cc(Cl)c(C(=O)Nc2ccc(OC3CNC3)cc2)n1 [Example 22, N-[4-(azetidin-3-yloxy)phenyl]-4-chloro-1-ethyl-pyrazole-3-carboxamide] | 0.0672 | 2030
14 | Cn1nc(C(F)(F)F)c(Cl)c1C(=O)Nc1ccc(OC2CNC2)cc1 [Example 29, N-[4-(azetidin-3-yloxy)phenyl]-4-chloro-2-methyl-5-(trifluoromethyl)pyrazole-3-carboxamide] | 0.0503 | 29
15 | O=C(Nc1ccc(Cl)nc1)c1ccc(OC2CNC2)cc1 [Example 30, 4-(azetidin-3-yloxy)-N-(6-chloropyridin-3-yl)benzamide] | 0.527 | 19.1
16 | O=C(Nc1ccc(OC2CNC2)cc1)c1[nH]nc(C2CC2)c1Br [Example 31, N-[4-(azetidin-3-yloxy)phenyl]-4-bromo-3-cyclopropyl-1H-pyrazole-5-carboxamide] | 0.0151 | 3.6
17 | O=C(Nc1ccc(OC2CNC2)cc1F)c1[nH]nc(C2CC2)c1Cl [Example 36, N-[4-(azetidin-3-yloxy)-2-fluoro-phenyl]-4-chloro-3-cyclopropyl-1H-pyrazole-5-carboxamide] | 0.029 | 13.9
18 | O=C(Nc1ccc(OC2CNC2)cc1F)c1cnc(C(F)(F)F)nc1 [Example 39, N-[4-(azetidin-3-yloxy)-2-fluoro-phenyl]-2-(trifluoromethyl)pyrimidine-5-carboxamide] | 0.476 | 62.8
19 | COc1ccc(C[C@@H]2NC[C@@H]2F)cc1 [Example 96, (2S,3S)-3-fluoro-2-(4-methoxybenzyl)azetidine] |  | 2760
20 | COc1ccc(C[C@@H]2NC[C@H]2F)cc1 [Example 97, (2S,3R)-3-fluoro-2-(4-methoxybenzyl)azetidine] |  | 1630
21 | COc1ccc(C[C@H]2NC[C@H]2F)cc1 [Example 98, (2R,3R)-3-fluoro-2-(4-methoxybenzyl)azetidine] |  | 200
22 | COc1ccc(C[C@H]2NC[C@@H]2F)cc1 [Example 99, (2R,3S)-3-fluoro-2-(4-methoxybenzyl)azetidine] |  | 200

Results, then the compound that gave them:

Row | Ki (rat TAAR1) [µM] | Ki (mouse TAAR1) [nM] | SMILES
23 |  | 12.3 | O=C(Nc1ccc(OC2CNC2)cc1)c1ccnc(C(F)(F)F)c1 [Example 5, N-(4-(azetidin-3-yloxy)phenyl)-2-(trifluoromethyl)isonicotinamide]
24 |  | 19.5 | O=C(Nc1ccc(OC2CNC2)cc1)c1cnc(C(F)(F)F)nc1 [Example 6, N-(4-(azetidin-3-yloxy)phenyl)-2-(trifluoromethyl)pyrimidine-5-carboxamide]
25 |  | 5.6 | COc1cc(C(=O)Nc2ccc(OC3CNC3)cc2)cc(C#N)n1 [Example 7, N-(4-(azetidin-3-yloxy)phenyl)-2-cyano-6-methoxyisonicotinamide]
26 | 0.165 | 55 | FC(F)(F)c1nccc(Nc2ccc(OC3CNC3)cc2)n1 [Example 8, N-[4-(azetidin-3-yloxy)phenyl]-2-(trifluoromethyl)pyrimidin-4-amine]
27 | 0.105 | 47.7 | FC(F)(F)c1cnc(Nc2ccc(OC3CNC3)cc2)nc1 [Example 9, N-(4-(azetidin-3-yloxy)phenyl)-5-(trifluoromethyl)pyrimidin-2-amine]
28 | 0.0178 | 3.3 | O=C(Nc1ccc(OC2CNC2)cc1)c1[nH]nc(C2CC2)c1Cl [Example 13, N-(4-(azetidin-3-yloxy)phenyl)-4-chloro-3-cyclopropyl-1H-pyrazole-5-carboxamide]
29 | 0.1 | 14.9 | O=C(Nc1ccc(OC2CNC2)cc1)c1cnc(C2CC2)nc1 [Example 14, N-(4-(azetidin-3-yloxy)phenyl)-2-cyclopropylpyrimidine-5-carboxamide]
30 | 0.261 | 57.1 | CCc1ncc(C(=O)Nc2ccc(OC3CNC3)cc2)cn1 [Example 15, N-[4-(azetidin-3-yloxy)phenyl]-2-ethyl-pyrimidine-5-carboxamide]
31 | 0.0208 | 12.8 | O=C(Nc1ccc(OC2CNC2)cc1)c1cnc(OCC(F)(F)F)nc1 [Example 19, N-(4-(azetidin-3-yloxy)phenyl)-2-(2,2,2-trifluoroethoxy)pyrimidine-5-carboxamide]
32 | 0.038 | 9.9 | O=C(Nc1ccc(Cl)cc1)c1ccc(OC2CNC2)cc1 [Example 23, 4-(azetidin-3-yloxy)-N-(4-chlorophenyl)benzamide]
33 | 0.0701 | 32.8 | O=C(Nc1ccc(OC2CNC2)cc1)c1cc(C(F)(F)F)n[nH]1 [Example 24, N-(4-(azetidin-3-yloxy)phenyl)-3-(trifluoromethyl)-1H-pyrazole-5-carboxamide]
34 | 0.0113 | 3 | O=C(Nc1ccc(OC2CNC2)c(F)c1)c1[nH]nc(C2CC2)c1Cl [Example 25, N-[4-(azetidin-3-yloxy)-3-fluoro-phenyl]-4-chloro-3-cyclopropyl-1H-pyrazole-5-carboxamide]
35 | 0.0238 | 16.1 | O=C(Nc1ccc(OC2CNC2)c(F)c1)c1cnc(C(F)(F)F)nc1 [Example 26, N-[4-(azetidin-3-yloxy)-3-fluoro-phenyl]-2-(trifluoromethyl)pyrimidine-5-carboxamide]
36 |  | 15.5 | O=C(Nc1ccc(OC2CNC2)c(F)c1)c1cnc(C2CC2)nc1 [Example 27, N-[4-(azetidin-3-yloxy)-3-fluoro-phenyl]-2-cyclopropyl-pyrimidine-5-carboxamide]
37 | 0.0284 | 9.6 | CCOc1ccc(C(=O)Nc2ccc(OC3CNC3)c(F)c2)cn1 [Example 28, N-[4-(azetidin-3-yloxy)-3-fluoro-phenyl]-6-ethoxy-pyridine-3-carboxamide]
38 | 0.0145 | 13.4 | CC(C)(C)c1n[nH]c(C(=O)Nc2ccc(OC3CNC3)cc2)c1Cl [Example 32, N-[4-(azetidin-3-yloxy)phenyl]-3-tert-butyl-4-chloro-1H-pyrazole-5-carboxamide]
39 | 0.0115 | 7.5 | CC(C)c1n[nH]c(C(=O)Nc2ccc(OC3CNC3)cc2)c1Cl [Example 33, N-[4-(azetidin-3-yloxy)phenyl]-4-chloro-3-isopropyl-1H-pyrazole-5-carboxamide]
40 | 0.0021 | 0.9 | O=C(Nc1ccc(OC2CNC2)cc1)c1[nH]nc(-c2ccc(Cl)cc2)c1Cl [Example 34, N-[4-(azetidin-3-yloxy)phenyl]-4-chloro-3-(4-chlorophenyl)-1H-pyrazole-5-carboxamide]
41 | 0.0466 | 3.1 | O=C(Nc1ccc(SC2CNC2)cc1)c1[nH]nc(C2CC2)c1Cl [Example 35, N-[4-(azetidin-3-ylsulfanyl)phenyl]-4-chloro-3-cyclopropyl-1H-pyrazole-5-carboxamide]
42 | 0.0026 | 0.7 | O=C(Nc1ccc(Cl)c(C(F)(F)F)c1)c1ccc(OC2CNC2)cc1 [Example 37, 4-(azetidin-3-yloxy)-N-(4-chloro-3-(trifluoromethyl)phenyl)benzamide]
43 | 0.853 | 35.1 | O=C(Nc1ccc(OC2CNC2)cc1F)c1cnc(C2CC2)nc1 [Example 38, N-[4-(azetidin-3-yloxy)-2-fluoro-phenyl]-2-cyclopropyl-pyrimidine-5-carboxamide]
44 | 0.0142 | 2.8 | O=C(Nc1ccc(OC2CNC2)cc1)c1[nH]nc(C(F)(F)F)c1Cl [Example 40, N-[4-(azetidin-3-yloxy)phenyl]-4-chloro-3-(trifluoromethyl)-1H-pyrazole-5-carboxamide]
